{"source": "patent US10821091B2", "about": "“Retinoid compositions and methods of increasing immune cell-mediated killing of IDH mutant cancer cells” (UNIVERSITY OF PITTSBURGH—OF THE COMMONWEALTH SYSTEM OF …, priority 2017, dated 2020)", "key": {"[1]": {"test_system": "IDH mutant (HT-1080, R132C IDH1 mutation) chondrosarcoma cells", "assay": "Viability and apoptosis of chondrosarcoma cells", "format": "cell-based", "settings": "48 hours", "method": "IDH mutant (HT-1080, R132C IDH1 mutation) chondrosarcoma cells were treated with different doses of ATRA or DMSO for 48 hours. After treatment, cells were evaluated for viability (FIG. 11A) and apoptosis by caspase activity (FIG. 11B). […] Additionally, IDH WT cells and IDH mutant chondrosarcoma cells were treated with different doses of ATRA or DMSO for 48 hours."}, "[2]": {"test_system": "IDH mutant primary glioma cells", "assay": "Tumor growth in athymic nude mice with flank glioma tumors", "format": "in vivo", "method": "Mice. 6-8 week old Balb/c nude mice (CAnN.Cg-Foxn1nu/Crl) were purchased from Charles River Laboratories. Mice were injected with 10^6 IDH WT or mutant primary glioma cells sub-cutaneously in the right flank. When the tumors were about 25 mm^2, ATRA treatment was started. 10 mg/Kg ATRA was administered to mice intra-peritoneally (i.p.) every alternate day until termination of the experiment. DMSO-treated mice were used as controls. The mice were monitored for signs of drug toxicity such as weight-loss, lethargy, skin lesions and diarrhea. The tumors were measured every 3 days, and the mice were sacrificed when the tumors were about 400 mm^2. For NK depletion experiments, 6-week old B6 nude mice (B6.Cg-Foxn1nu/J) were purchased from The Jackson Laboratory. NK depletion was performed by injecting mice with 200 μg of anti-NK1.1 antibody (Biolegend) i.p. on the day ATRA treatment was started. Mice injected with 200 μg of an isotype antibody were used as controls. Mice were bled and evaluated for circulating NKs by flow cytometry.\nATRA promotes tumor stasis in IDH mutant tumor-bearing mice. To determine the value of ATRA as a therapeutic modality, its anti-tumor efficacy in vivo was evaluated. […] Tumors were measured every 3 days. […] Resected tumors from ATRA or DMSO-treated mice were digested to obtain single cell suspensions and assessed for killing by human and mouse NK cells ex vivo."}, "[3]": {"test_system": "IDH mutant cells", "assay": "NK cytotoxicity assay (CFSE/7-AAD flow cytometry) on ATRA-treated glioma cells", "format": "cell-based, human", "method": "All-trans Retinoic acid (ATRA) treatment of astrocytes and primary glioma cells. ATRA was purchased from Sigma Aldrich® and reconstituted in DMSO. ATRA was added at a 1 μM final concentration to cell culture medium for 48 hours. After treatment, the cells either lysed in Trizol™ for qPCR analysis, or were used in NK cytotoxicity assays.\nNK-92 cell culture. For some experiments, NK92 cells were used instead of donor NK cells. NK92 cells (ATCC® CRL-2407™) were obtained from ATCC. […] Fresh medium was added every 2-3 days and once a week, the cells were counted and re-suspended at a final concentration of 5×10^5 cells/mL in fresh medium.\nNK cytotoxicity assay. […] After 6 h incubation, the cells were stained with 0.25 μg/ml of 7-AAD and analyzed by flow cytometry.\nATRA induced increased cytotoxic killing of IDH mutant cells in an NKG2D-ligand dependent manner. The ability of ATRA to sensitize IDH mutant cells to killing by NK cells was evaluated. For this purpose, IDH mutant and WT cells were treated with 1 μM ATRA for 48 hours and assessed for killing by NK-92 cells (ATCC) at a 10:1 E:T ratio. […] ATRA-treated cells were also evaluated for expression of NKG2D ligands."}, "[4]": {"test_system": "RBP1 in IDH mutant (HT-1080) cells", "assay": "RBP1 levels by qPCR in chondrosarcoma cells", "format": "cell-based", "settings": "1 μM or 10 μM ATRA, 48 hours", "source_text": "IDH mutant tumor cells produce reduced amounts of RBP1 compared to WT IDH tumor cells (FIG. 11D)."}, "[5]": {"test_system": "IDH mutant tumors", "assay": "Comparison of RA isoforms in tumor-bearing mice", "format": "in vivo", "source_text": "Mice. […] DMSO-treated mice were used as controls.\nTherefore, the efficacy of two other RA isoforms were compared with ATRA in IDH mutant gliomas. […] However, treatment of IDH mutant tumors with all three retinoic acid isoforms reduced tumor size (the bottom 3 data lines at Day 40 having endpoints below 100 mm^2). […] The changes in tumor microenvironment induced by ATRA differed from the other RA isoforms as well."}, "[6]": {"test_system": "IDH mutant primary glioma neurospheres", "assay": "Differentiation of primary glioma neurospheres", "format": "cell-based, human", "settings": "for morphological changes: 1 μM ATRA", "method": "Glioma cell culture. Resected tumors from Glioma patients (both IDH wt and mutant) were mechanically dissociated to form a single cell suspension. Contaminating RBCs were removed using an RBC lysis buffer (eBioscience) and cells were propagated into neural stem cells in Neurocult™ NS-A proliferation kit supplemented with 20 ng/mL Human Recombinant EGF, 10 ng/mL Human Recombinant bFGF) and 2 μg/mL Heparin Solution (Stemcell Technologies Canada Inc.). After 3 weeks in culture, neurospheres were moved to Complete Medium (CM) in order to propagate differentiation into adherent cell lines.\nAll-trans retinoic acid (ATRA) is a differentiating agent for multiple types of cancers, including IDH mutant acute myeloid leukemia (AML). Therefore, efficacy of ATRA as a differentiating agent in IDH mutant gliomas was evaluated. IDH mutant or WT primary glioma neurospheres were treated with 1 μM ATRA for 2, 7 or 14 days. At each time point, cells were evaluated for morphological changes and changes in their molecular profile. Vehicle (DMSO)-treated cells served as controls, while cells treated with 10% FBS served as differentiation (positive) controls."}}, "note": "“Also recorded” adds a separate entry of the source."}
{"smiles": "CC1=C(/C=C/C(C)=C/C=C/C(C)=C/C(=O)O)C(C)(C)CCC1", "note": "[ATRA, all-trans retinoic acid]", "values": [{"measurement": "apoptosis by caspase activity", "setting": "[1]; HT-1080, different doses", "value": "induced apoptotic cell death"}, {"measurement": "cell viability", "setting": "[1]; HT-1080, different doses", "value": "decreased cell viability"}, {"measurement": "7-AAD levels (flow cytometry)", "setting": "[1]; IDH WT and IDH mutant chondrosarcoma cells, different doses", "value": "increased 7-AAD levels corresponding to increased apoptotic cell death in a dose-dependent manner"}, {"measurement": "tumor growth", "setting": "[2]; 10 mg/kg every other day for 21 days, vs DMSO (vehicle)-treated mice and mice with WT tumors", "value": "significantly slower tumor growth"}, {"measurement": "ex vivo expression of ULBP1 and ULBP3 in tumors", "setting": "[2]; ATRA-treated IDH mutant tumors (data not shown)", "value": "increased ex vivo expression of ULBP1 and ULBP3"}, {"measurement": "killing by NK cells incubated with NKG2D blocking antibody", "setting": "[3]; ATRA-treated IDH mutant cells", "value": "failed to recognize and kill ATRA-treated IDH mutant cells, reducing killing to baseline levels"}, {"measurement": "killing by NK-92 cells", "setting": "[3]; IDH mutant cells, 1 μM ATRA 48 hours, 10:1 E:T ratio, vs DMSO-treated controls", "value": "significantly more susceptible to killing by NK-92 cells"}, {"measurement": "RBP1 levels", "setting": "[4]", "value": "increased RBP1 levels in IDH mutant chondrosarcoma cells in a dose dependent manner"}, {"measurement": "efficacy at retarding IDH mutant tumor growth compared among RA isoforms", "setting": "[5]; ATRA vs 13-cis RA and bexarotene", "value": "significantly more effective at retarding IDH mutant tumor growth in vivo; also recorded: the most effective RA isoform in terms of tumor growth"}, {"measurement": "tumor microenvironment immune cells", "setting": "[5]; after ATRA treatment, compared with 13-cis RA and bexarotene", "value": "lower MDSCs and monocytes, and higher DCs and macrophages"}, {"measurement": "gene expression levels of ULBP3 ex vivo", "setting": "[5]; compared with 13-cis RA and bexarotene", "value": "higher gene expression levels of ULBP3"}, {"measurement": "killing of IDH mutant cells by NK cells", "setting": "[5]; ex vivo co-culture with human NKs, compared among RA isoforms", "value": "significantly increased killing of IDH mutant cells by NK cells; also recorded: highest level of NK-mediated killing"}, {"measurement": "morphological changes", "setting": "[6]; 14 days", "value": "induced morphological changes in IDH mutant primary glioma neurospheres, but not WT neurospeheres"}, {"measurement": "morphological changes", "setting": "[6]; earlier time points", "value": "Minimal morphological changes"}, {"measurement": "time of ATRA treatment after which differentiation occurred", "setting": "[6]; IDH mutant glioma stem cells", "value": "> 10", "unit": "days"}, {"measurement": "levels of stem cell markers Sox2, CD133 and Nestin", "setting": "[6]; IDH mutant neurospheres, ATRA 14 days, PCR (Nestin also flow cytometry)", "value": "significantly lower levels"}, {"measurement": "levels of GFAP, astrocytic differentiation marker", "setting": "[6]; IDH mutant neurospheres, ATRA 14 days, PCR and flow cytometry", "value": "increased levels of GFAP"}]}
